Laboratory results as given in ChEMBL document CHEMBL6134864, “Discovery of FLT3-ITD Inhibitor Clifutinib: A Novel Biphenylacetylene Urea Derivative in Clinical Trials for the Treatment of Relapsed/Refractory FLT3-ITD+ Acute Myeloid Leukemia” (J Med Chem, 2025).

Columns and labels:
[1] = Half life in rat plasma at 5 mg/kg, po measured up to 24 hrs by LC-MS/MS analysis; type: ADME, organism-based
[2] = Oral bioavailability in rat plasma at 5 mg/kg measured up to 24 hrs by LC-MS/MS analysis; type: ADME, organism-based
[3] = Half life in mouse plasma at 10 mg/kg, po measured up to 24 hrs by LC-MS/MS analysis; type: ADME, organism-based
[4] = Oral bioavailability in mouse plasma at 10 mg/kg measured up to 24 hrs by LC-MS/MS analysis; type: ADME, organism-based
[5] = Half life in dog plasma at 1 mg/kg, iv measured up to 24 hrs by LC-MS/MS analysis; type: ADME, organism-based, Canis lupus familiaris
[6] = Cmax in dog plasma at 5 mg/kg, po measured up to 24 hrs by LC-MS/MS analysis; type: ADME, organism-based, Canis lupus familiaris
[7] = AUC last in dog plasma at 5 mg/kg, po measured up to 24 hrs by LC-MS/MS analysis; type: ADME, organism-based, Canis lupus familiaris
[8] = Tmax in monkey plasma at 1 mg/kg, iv measured up to 24 hrs by LC-MS/MS analysis; type: ADME, organism-based, Macaca mulatta; conditions: rhesus monkey
[9] = Volume of distribution at steady state in monkey plasma at 1 mg/kg, iv measured up to 24 hrs by LC-MS/MS analysis; type: ADME, organism-based, Macaca mulatta; conditions: rhesus monkey, read-out: Vdss
[10] = Tmax in monkey plasma at 5 mg/kg, po measured up to 24 hrs by LC-MS/MS analysis; type: ADME, organism-based, Macaca mulatta; conditions: rhesus monkey
[11] = AUC last in monkey plasma at 5 mg/kg, po measured up to 24 hrs by LC-MS/MS analysis; type: ADME, organism-based, Macaca mulatta; conditions: rhesus monkey, in vivo
hERG (KCNH2) = hERG (KCNH2) (Homo sapiens, UniProt Q12809); experiment: Inhibition of human ERG expressed in CHO cells at 30 uM by manual patch clamp assay relative to control; type: toxicity, cell-based; conditions: CHO cells expressing human ERG
hERG (KCNH2), sequence (Q12809 whole entry): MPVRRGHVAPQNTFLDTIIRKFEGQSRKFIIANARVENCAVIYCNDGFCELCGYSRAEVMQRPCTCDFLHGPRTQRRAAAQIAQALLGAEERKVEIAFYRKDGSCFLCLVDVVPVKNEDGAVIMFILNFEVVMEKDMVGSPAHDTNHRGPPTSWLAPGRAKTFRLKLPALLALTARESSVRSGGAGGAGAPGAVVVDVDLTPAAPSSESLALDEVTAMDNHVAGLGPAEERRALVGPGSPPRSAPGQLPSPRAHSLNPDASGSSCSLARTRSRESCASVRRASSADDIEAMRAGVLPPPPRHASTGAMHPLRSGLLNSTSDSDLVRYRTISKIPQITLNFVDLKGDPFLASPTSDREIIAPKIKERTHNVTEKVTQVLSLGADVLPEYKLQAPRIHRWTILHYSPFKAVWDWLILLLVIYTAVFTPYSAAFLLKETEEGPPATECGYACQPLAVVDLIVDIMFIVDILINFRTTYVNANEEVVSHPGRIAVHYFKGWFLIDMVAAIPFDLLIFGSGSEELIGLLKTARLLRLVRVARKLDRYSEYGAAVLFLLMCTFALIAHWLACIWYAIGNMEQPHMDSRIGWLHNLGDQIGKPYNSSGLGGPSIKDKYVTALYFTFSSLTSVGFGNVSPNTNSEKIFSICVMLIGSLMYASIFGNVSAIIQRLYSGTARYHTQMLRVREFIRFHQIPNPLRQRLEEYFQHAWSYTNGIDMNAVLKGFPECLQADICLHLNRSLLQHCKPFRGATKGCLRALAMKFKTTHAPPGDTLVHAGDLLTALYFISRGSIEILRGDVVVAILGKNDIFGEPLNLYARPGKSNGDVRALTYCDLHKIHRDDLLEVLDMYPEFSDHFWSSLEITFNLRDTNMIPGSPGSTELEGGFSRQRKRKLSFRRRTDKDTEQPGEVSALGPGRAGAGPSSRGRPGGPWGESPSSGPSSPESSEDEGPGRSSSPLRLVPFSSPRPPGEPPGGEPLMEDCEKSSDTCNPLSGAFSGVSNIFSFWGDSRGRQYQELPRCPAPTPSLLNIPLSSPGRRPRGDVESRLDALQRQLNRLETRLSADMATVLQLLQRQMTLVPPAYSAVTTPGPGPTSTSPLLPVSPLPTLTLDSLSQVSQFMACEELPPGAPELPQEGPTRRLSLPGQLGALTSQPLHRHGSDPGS

BaF3 [12] = experiment: Antiproliferative activity against mouse BaF3 cells harbouring FLT3-ITD-N676D mutant assessed as inhibition of cell growth incubated for 72 hrs by celltiter-glo luminescent cell viability assay; type: functional, cell-based; conditions: BaF3, 72 h
BaF3 [13] = experiment: Antiproliferative activity against mouse BaF3 cells harbouring FLT3-ITD-Y842R mutant assessed as inhibition of cell growth incubated for 72 hrs by celltiter-glo luminescent cell viability assay; type: functional, cell-based; conditions: BaF3, 72 h
BaF3 [14] = experiment: Antiproliferative activity against mouse BaF3 cells harbouring FLT3-ITD-F691I mutant assessed as inhibition of cell growth incubated for 72 hrs by celltiter-glo luminescent cell viability assay; type: functional, cell-based; conditions: BaF3, 72 h
BaF3 [15] = experiment: Antiproliferative activity against mouse BaF3 cells harbouring FLT3-D835Y mutant assessed as inhibition of cell growth incubated for 72 hrs by celltiter-glo luminescent cell viability assay; type: functional, cell-based; conditions: BaF3, 72 h
BaF3 [16] = experiment: Antiproliferative activity against mouse BaF3 cells harbouring FLT3-D835V mutant assessed as inhibition of cell growth incubated for 72 hrs by celltiter-glo luminescent cell viability assay; type: functional, cell-based; conditions: BaF3, 72 h
BaF3 [17] = experiment: Antiproliferative activity against wild type mouse BaF3 cells assessed as inhibition of cell growth incubated for 72 hrs by celltiter-glo luminescent cell viability assay; type: functional, cell-based; conditions: BaF3, 72 h
MV4-11 = experiment: Induction of apoptosis in human MV4-11 cells harbouring FLT3-ITD mutant measured after 48 to 72 hrs by annexin V and PI staining based flow cytometry analysis; type: functional, cell-based; conditions: dose 1-100 nM, time 48-72 hrs
[18] = system: Receptor-type tyrosine-protein kinase FLT3 (Homo sapiens), P36888 [UNDEFINED MUTATION]; experiment: Inhibition of FLT3 in human MV4-11 cells harbouring FLT3-ITD mutant assessed as inhibition of STAT5 phosphorylation level measured after 2 hrs by Western blot analysis; type: cell-based; conditions: dose 1-1000 nM
Receptor-type tyrosine-protein kinase FLT3 (Homo sapiens), P36888 [UNDEFINED MUTATION], sequence (P36888 whole entry, looked up, change not shown): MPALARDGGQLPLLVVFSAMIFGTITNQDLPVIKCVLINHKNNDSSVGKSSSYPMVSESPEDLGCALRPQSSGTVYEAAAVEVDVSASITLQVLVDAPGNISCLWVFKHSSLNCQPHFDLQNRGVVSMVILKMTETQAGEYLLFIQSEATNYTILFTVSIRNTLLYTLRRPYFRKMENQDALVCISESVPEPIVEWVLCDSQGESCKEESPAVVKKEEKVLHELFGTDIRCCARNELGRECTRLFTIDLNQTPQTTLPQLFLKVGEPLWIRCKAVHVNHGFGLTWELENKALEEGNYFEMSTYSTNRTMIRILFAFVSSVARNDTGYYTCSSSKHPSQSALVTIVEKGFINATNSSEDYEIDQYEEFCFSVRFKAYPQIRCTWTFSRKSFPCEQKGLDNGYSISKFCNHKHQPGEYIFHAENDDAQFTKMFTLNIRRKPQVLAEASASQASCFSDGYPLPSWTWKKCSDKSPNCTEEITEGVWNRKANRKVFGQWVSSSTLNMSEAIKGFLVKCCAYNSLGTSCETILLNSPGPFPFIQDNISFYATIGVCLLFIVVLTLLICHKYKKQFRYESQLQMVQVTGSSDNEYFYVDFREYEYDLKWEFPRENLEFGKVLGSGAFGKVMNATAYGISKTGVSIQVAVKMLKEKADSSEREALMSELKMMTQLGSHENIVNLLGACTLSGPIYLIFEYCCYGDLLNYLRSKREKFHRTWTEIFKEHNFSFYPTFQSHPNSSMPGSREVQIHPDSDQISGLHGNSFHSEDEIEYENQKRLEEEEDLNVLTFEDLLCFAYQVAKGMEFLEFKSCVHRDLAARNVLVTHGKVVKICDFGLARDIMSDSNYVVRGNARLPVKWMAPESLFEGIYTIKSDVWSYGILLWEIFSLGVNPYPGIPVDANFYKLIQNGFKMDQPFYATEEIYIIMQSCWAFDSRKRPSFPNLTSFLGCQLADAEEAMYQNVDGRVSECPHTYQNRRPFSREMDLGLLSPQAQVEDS

[19] = biological target: Platelet-derived growth factor receptor beta (Homo sapiens, UniProt P09619); experiment: Inhibition of human PDGFR beta by biochemical kinase binding assay
Platelet-derived growth factor receptor beta, sequence (P09619 whole entry): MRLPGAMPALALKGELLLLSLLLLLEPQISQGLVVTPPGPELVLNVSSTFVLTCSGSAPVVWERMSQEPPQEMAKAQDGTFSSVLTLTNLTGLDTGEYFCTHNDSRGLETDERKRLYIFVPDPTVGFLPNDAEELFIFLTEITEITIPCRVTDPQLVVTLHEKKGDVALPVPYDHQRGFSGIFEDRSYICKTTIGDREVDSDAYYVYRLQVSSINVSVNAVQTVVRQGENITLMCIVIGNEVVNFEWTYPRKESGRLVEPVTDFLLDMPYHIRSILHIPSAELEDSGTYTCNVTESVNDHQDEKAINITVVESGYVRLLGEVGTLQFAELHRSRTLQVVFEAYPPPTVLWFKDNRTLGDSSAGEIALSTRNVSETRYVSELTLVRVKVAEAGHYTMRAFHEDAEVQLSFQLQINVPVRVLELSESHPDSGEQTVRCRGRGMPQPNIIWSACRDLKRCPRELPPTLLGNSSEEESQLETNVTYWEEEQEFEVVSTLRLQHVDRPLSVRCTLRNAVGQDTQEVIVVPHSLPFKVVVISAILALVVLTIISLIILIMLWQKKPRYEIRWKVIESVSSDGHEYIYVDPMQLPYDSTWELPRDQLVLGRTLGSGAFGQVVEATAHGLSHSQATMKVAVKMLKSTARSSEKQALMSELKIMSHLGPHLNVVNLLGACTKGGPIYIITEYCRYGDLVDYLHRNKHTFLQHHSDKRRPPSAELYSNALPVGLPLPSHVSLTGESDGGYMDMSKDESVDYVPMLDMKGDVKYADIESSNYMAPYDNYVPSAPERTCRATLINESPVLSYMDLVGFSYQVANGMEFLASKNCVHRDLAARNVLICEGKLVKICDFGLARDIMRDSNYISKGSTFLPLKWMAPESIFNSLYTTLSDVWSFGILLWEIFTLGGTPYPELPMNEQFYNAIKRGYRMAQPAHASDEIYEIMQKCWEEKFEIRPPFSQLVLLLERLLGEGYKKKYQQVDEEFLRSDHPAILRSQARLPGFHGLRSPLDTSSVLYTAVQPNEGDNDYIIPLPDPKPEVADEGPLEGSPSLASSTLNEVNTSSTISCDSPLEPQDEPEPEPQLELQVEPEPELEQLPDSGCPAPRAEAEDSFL

[20] = biological target: Proto-oncogene tyrosine-protein kinase receptor Ret (Homo sapiens, UniProt P07949); experiment: Inhibition of human RET by biochemical kinase binding assay
Proto-oncogene tyrosine-protein kinase receptor Ret, sequence (P07949 whole entry): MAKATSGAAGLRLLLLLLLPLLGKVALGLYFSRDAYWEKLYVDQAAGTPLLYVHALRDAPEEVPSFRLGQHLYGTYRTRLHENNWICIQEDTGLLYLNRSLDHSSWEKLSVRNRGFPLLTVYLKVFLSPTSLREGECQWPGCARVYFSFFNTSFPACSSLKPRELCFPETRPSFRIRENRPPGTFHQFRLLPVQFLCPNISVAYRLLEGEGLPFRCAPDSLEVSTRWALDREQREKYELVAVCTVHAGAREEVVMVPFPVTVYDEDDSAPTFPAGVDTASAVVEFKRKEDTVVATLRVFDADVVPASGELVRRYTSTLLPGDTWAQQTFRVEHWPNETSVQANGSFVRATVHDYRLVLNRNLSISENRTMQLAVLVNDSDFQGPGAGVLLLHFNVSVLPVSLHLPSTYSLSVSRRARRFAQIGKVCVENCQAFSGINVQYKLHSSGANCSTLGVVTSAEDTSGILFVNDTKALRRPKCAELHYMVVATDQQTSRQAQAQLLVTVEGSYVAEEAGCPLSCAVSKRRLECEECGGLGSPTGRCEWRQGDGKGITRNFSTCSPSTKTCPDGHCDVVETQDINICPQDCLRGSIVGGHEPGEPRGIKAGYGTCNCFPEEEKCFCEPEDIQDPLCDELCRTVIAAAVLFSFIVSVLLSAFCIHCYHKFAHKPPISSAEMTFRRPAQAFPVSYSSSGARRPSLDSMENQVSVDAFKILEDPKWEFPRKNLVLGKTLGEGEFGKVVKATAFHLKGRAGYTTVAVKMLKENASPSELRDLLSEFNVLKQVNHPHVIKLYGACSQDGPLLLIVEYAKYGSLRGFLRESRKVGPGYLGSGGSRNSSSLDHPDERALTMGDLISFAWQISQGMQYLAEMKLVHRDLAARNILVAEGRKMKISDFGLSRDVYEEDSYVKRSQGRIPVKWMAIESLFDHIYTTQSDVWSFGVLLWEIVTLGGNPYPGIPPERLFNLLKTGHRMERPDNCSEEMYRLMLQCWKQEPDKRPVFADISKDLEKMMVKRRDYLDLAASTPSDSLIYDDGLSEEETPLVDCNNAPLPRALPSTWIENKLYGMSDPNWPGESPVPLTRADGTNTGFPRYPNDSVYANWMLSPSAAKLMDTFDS

Cytochrome P450 1A2 = Cytochrome P450 1A2 (Homo sapiens, UniProt P05177); experiment: Inhibition of CYP1A2 in human liver microsomes by UPLC-MS/MS analysis; type: ADME, Microsome
Cytochrome P450 1A2, sequence (P05177 whole entry): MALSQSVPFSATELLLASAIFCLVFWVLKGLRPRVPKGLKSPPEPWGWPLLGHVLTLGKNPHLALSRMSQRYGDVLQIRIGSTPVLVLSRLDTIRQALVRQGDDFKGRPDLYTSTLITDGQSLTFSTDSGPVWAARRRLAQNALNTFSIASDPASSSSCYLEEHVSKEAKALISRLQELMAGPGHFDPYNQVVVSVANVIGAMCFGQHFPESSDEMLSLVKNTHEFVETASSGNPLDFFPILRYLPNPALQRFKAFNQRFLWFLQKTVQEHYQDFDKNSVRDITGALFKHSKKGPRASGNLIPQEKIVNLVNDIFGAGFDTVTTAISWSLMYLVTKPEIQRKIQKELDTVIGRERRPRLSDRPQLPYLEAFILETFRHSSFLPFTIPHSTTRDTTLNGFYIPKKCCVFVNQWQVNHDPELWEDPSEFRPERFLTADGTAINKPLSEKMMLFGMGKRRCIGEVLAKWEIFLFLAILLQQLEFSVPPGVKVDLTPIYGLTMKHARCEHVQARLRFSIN

[21] = Toxicity in NOD/SCID mouse assessed as effect on body weight loss at 0.5 to 4.5 mg/kg/day, po administered for 21 days and measured for 31 days post dose; type: organism-based; conditions: in vivo, 504 h, dose 0.5-4.5 mg/kg/day, time 21 day
[22] = Toxicity in NOD/SCID mouse assessed as observable signs of toxicity at 0.5 to 4.5 mg/kg/day, po administered for 21 days and measured for 31 days post dose; type: organism-based; conditions: in vivo, 504 h, dose 0.5-4.5 mg/kg/day, time 21 day
[23] = Half life in NOD/SCID mouse plasma xenografted with human MV4-11 cells at […], po measured up to 24 hrs by LC-MS/MS analysis; type: ADME, organism-based; conditions: dose 1.5 mg/kg
[24] = Tmax in NOD/SCID mouse plasma xenografted with human MV4-11 cells at 0.5 mg/kg, po measured up to 24 hrs by LC-MS/MS analysis; type: ADME, organism-based
[25] = Tmax in NOD/SCID mouse tumor xenografted with human MV4-11 cells at […], po measured up to 24 hrs by LC-MS/MS analysis; type: ADME, organism-based, Neoplasm; conditions: dose 1.5 mg/kg
[26] = Cmax in NOD/SCID mouse tumor xenografted with human MV4-11 cells at 0.5 mg/kg, po measured up to 24 hrs by LC-MS/MS analysis; type: ADME, organism-based, Neoplasm
[27] = AUC (0 to t) in NOD/SCID mouse plasma xenografted with human MV4-11 cells at 0.5 mg/kg, po measured up to 24 hrs by LC-MS/MS analysis; type: ADME, organism-based
[28] = AUC (0 to t) in NOD/SCID mouse plasma xenografted with human MV4-11 cells at […], po measured up to 24 hrs by LC-MS/MS analysis; type: ADME, organism-based; conditions: dose 1.5 mg/kg
[29] = AUC (0 to t) in NOD/SCID mouse plasma xenografted with human MV4-11 cells at 4.5 mg/kg, po measured up to 24 hrs by LC-MS/MS analysis; type: ADME, organism-based
MOLM-13 = experiment: cells; conditions: Homo sapiens, MOLM-13, 72 h
Description: Antiproliferative activity against human MOLM-13 cells assessed as inhibition of cell growth incubated for 72 hrs by celltiter-glo luminescent cell viability assay

RS4-11 = experiment: cells; conditions: Homo sapiens, RS4-11, 72 h
Description: Antiproliferative activity against human RS4;11 cells assessed as inhibition of cell growth incubated for 72 hrs by celltiter-glo luminescent cell viability assay

HL-60 = experiment: cells; conditions: Homo sapiens, HL-60, 72 h
Description: Antiproliferative activity against human HL-60 cells assessed as inhibition of cell growth incubated for 72 hrs by celltiter-glo luminescent cell viability assay

MOLT-4 = experiment: cells; conditions: Homo sapiens, MOLT-4, 72 h
Description: Antiproliferative activity against human MOLT-4 cells assessed as inhibition of cell growth incubated for 72 hrs by celltiter-glo luminescent cell viability assay

RPMI-8226 = experiment: cells; conditions: Homo sapiens, RPMI-8226, 72 h
Description: Antiproliferative activity against human RPMI-8226 cells assessed as inhibition of cell growth incubated for 72 hrs by celltiter-glo luminescent cell viability assay

DU-145 = experiment: cells; conditions: Homo sapiens, DU-145, 72 h
Description: Antiproliferative activity against human DU-145 cells assessed as inhibition of cell growth incubated for 72 hrs by celltiter-glo luminescent cell viability assay

OVCAR-3 = experiment: cells; conditions: Homo sapiens, OVCAR-3, 72 h
Description: Antiproliferative activity against human OVCAR-3 cells assessed as inhibition of cell growth incubated for 72 hrs by celltiter-glo luminescent cell viability assay

MCF7 = experiment: cells; conditions: Homo sapiens, MCF7, 72 h
Description: Antiproliferative activity against human MCF7 cells assessed as inhibition of cell growth incubated for 72 hrs by celltiter-glo luminescent cell viability assay

BaF3 [30] = experiment: cells; conditions: Mus musculus, BaF3, 72 h

With `CC(C)(C)c1cc(NC(=O)Nc2ccc(C#Cc3ccc(OCCCN4CCOCC4)cc3)cc2)no1` the half-life [1] was 4.45 h, the bioavailability [2] was 67.9% and the half-life [3] was 1.73 h. The bioavailability [4] was 50.3%, the half-life [5] was 6.28 h and the Cmax [6] was 520 ng/mL. For the same molecule, the AUC(0-t) at 24 h [7] was 4870 ng·h/mL, the Tmax [8] was 4.98 min and the Vd [9] was 0.996 L/kg. The Tmax [10] was 4 h, the AUClast [11] was 10800 ng·h/mL and the inhibition at 30 µM (hERG (KCNH2)) was 22.8%. The IC50 (BaF3 [12]) was 6.9 nM, the IC50 (BaF3 [13]) was 21.8 nM and the IC50 (BaF3 [14]) was 154 nM. It also gave an IC50 (BaF3 [15]) of 5.4 nM, an IC50 (BaF3 [16]) of 37.4 nM and an IC50 (BaF3 [17]) greater than 1000 nM. For the same molecule, the Activity (MV4-11) was “Dose-dependent-effect”, the inhibition [18] was “Dose-dependent-effect” and the IC50 [19] was 1630 nM. For the same molecule, the IC50 [20] was 110 nM, the IC50 (Cytochrome P450 1A2) was greater than 33300 nM and the Activity [21] was “Non-toxic”. The Activity [22] was “Non-toxic”, the half-life at 24 h [23] was 3.34 h and the Tmax [24] was 1 h. For the same molecule, the Tmax at 24 h [25] was 6 h, the Cmax [26] was 23.3 ng/mL and the AUC(0-t) at 24 h [27] was 58.9 ng·h/mL. The AUC(0-t) at 24 h [28] was 208 ng·h/mL, the AUC(0-t) at 24 h [29] was 908 ng·h/mL and the IC50 (MOLM-13) was 1 nM. For the same molecule, the IC50 (RS4-11) was greater than 10000 nM, the IC50 (HL-60) was greater than 10000 nM and the IC50 (MOLT-4) was greater than 10000 nM. It also gave an IC50 (RPMI-8226) greater than 10000 nM, an IC50 (DU-145) greater than 10000 nM and an IC50 (OVCAR-3) greater than 10000 nM. For the same molecule, the IC50 (MCF7) was greater than 10000 nM and the IC50 (BaF3 [30]) was 2.9 nM.
